Results published in US9993494B2, “Compositions and methods for treating fibrotic disease” (eFFECTOR Therapeutics, Inc., priority 2014, dated 2018).

System: normal human lung fibroblasts
Test: Ribosomal profiling: translational efficiency in TGFβ-treated fibroblasts
Assay type: cell-based
Conditions: TGFβ-treated fibroblasts
Summary of the method: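 Genome-wide RPF and total RNA libraries (ARTseq, RNA-Seq) were made from lysates of cycloheximide-treated, PBS-washed cells. After trimming and human-genome mapping, per-gene coding-region counts were compared between RPF and RNA for translational efficiency. Genes scoring low in either fraction were dropped.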

Cc1cc(C2CCCCC2)n(O)c(=O)c1.NCCO [CPX, ciclopirox oloamine]
six: number of genes whose translational efficiency was uniquely modulated by the compound (duplicate ribosomal profiles)
+ (+ = 0.9 to 1.5): renormalizing the translational profile of ROBO2 (ENSG00000185008) | renormalizing the translational profile of LAMB3 (ENSG00000196878) | renormalizing the translational profile of CES1 (ENSG00000198848)
− (− = <0.9): renormalizing the translational profile of RPL9 (ENSG00000163682) | renormalizing the translational profile of RHOBTB3 (ENSG00000164292) | renormalizing the translational profile of RPL36AL (ENSG00000165502) | renormalizing the translational profile of RPL27A (ENSG00000166441) | renormalizing the translational profile of RP11-382A20.3.1 (ENSG00000166503) | renormalizing the translational profile of ANKDD1A (ENSG00000166839) | renormalizing the translational profile of RPL13 (ENSG00000167526) | renormalizing the translational profile of EEF2 (ENSG00000167658) | renormalizing the translational profile of CA5B (ENSG00000169239) | renormalizing the translational profile of KIAA1024 (ENSG00000169330) | renormalizing the translational profile of MURC (ENSG00000170681) | renormalizing the translational profile of HTRA3 (ENSG00000170801) | renormalizing the translational profile of PDE7B (ENSG00000171408) | renormalizing the translational profile of LPAR3 (ENSG00000171517) | renormalizing the translational profile of CTPS (ENSG00000171793) | renormalizing the translational profile of QARS (ENSG00000172053) | renormalizing the translational profile of RPL38 (ENSG00000172809) | renormalizing the translational profile of MRPL45 (ENSG00000174100) | renormalizing the translational profile of RPL4 (ENSG00000174444) | renormalizing the translational profile of RPL15 (ENSG00000174748) | renormalizing the translational profile of DES (ENSG00000175084) | renormalizing the translational profile of EIF3F (ENSG00000175390) | renormalizing the translational profile of CLCF1 (ENSG00000175505) | renormalizing the translational profile of AMIGO3 (ENSG00000176020) | renormalizing the translational profile of C14orf49 (ENSG00000176438) | renormalizing the translational profile of RPLP2 (ENSG00000177600) | renormalizing the translational profile of IMPDH2 (ENSG00000178035) | renormalizing the translational profile of DNAJC22 (ENSG00000178401) | renormalizing the translational profile of RPL35A (ENSG00000182899) | renormalizing the translational profile of LENG9 (ENSG00000182909) | renormalizing the translational profile of C22orf32 (ENSG00000183172) | renormalizing the translational profile of PDE4B (ENSG00000184588) | renormalizing the translational profile of PTCH1 (ENSG00000185920) | renormalizing the translational profile of POLR1D (ENSG00000186184) | renormalizing the translational profile of DYNC2H1 (ENSG00000187240) | renormalizing the translational profile of RPL14 (ENSG00000188846) | renormalizing the translational profile of LRRK2 (ENSG00000188906) | renormalizing the translational profile of NACA (ENSG00000196531) | renormalizing the translational profile of PCBP2 (ENSG00000197111) | renormalizing the translational profile of MAP3K5 (ENSG00000197442) | renormalizing the translational profile of RPL37A (ENSG00000197756) | renormalizing the translational profile of RPL12 (ENSG00000197958) | renormalizing the translational profile of LPAR1 (ENSG00000198121) | renormalizing the translational profile of RPL23A (ENSG00000198242) | renormalizing the translational profile of PLN (ENSG00000198523) | renormalizing the translational profile of RPL10A (ENSG00000198755) | renormalizing the translational profile of RPL39 (ENSG00000198918) | renormalizing the translational profile of CARD16 (ENSG00000204397) | renormalizing the translational profile of MICA (ENSG00000204520) | renormalizing the translational profile of GNB2L1 (ENSG00000204628) | renormalizing the translational profile of RPL17 (ENSG00000215472) | renormalizing the translational profile of RPL41 (ENSG00000229117) | renormalizing the translational profile of ARPC1A (ENSG00000241685) | renormalizing the translational profile of CHCHD10 (ENSG00000250479) | renormalizing the translational profile of EEF1G (ENSG00000254772) | effect in renormalizing the translational profile of the gene (gene RPS2 (ENSG00000140988)) | effect in renormalizing the translational profile of the gene (gene RPS3 (ENSG00000149273)) | effect in renormalizing the translational profile of the gene (gene RPS3A (ENSG00000145425)) | effect in renormalizing the translational profile of the gene (gene RPS4X (ENSG00000198034)) | effect in renormalizing the translational profile of the gene (gene RPS4Y1 (ENSG00000129824)) | effect in renormalizing the translational profile of the gene (gene RPS5 (ENSG00000083845))
